{"source": "patent KR20110060529A", "about": "“시클로헥산 디카르복실산 유도체를 함유하는 피부 외용제 조성물” ((주)아모레퍼시픽, priority 2009, dated 2011)", "type_in_all_cases": "in vitro ADME, guinea pig", "key": {"[1]": {"assay": "Test Example 2: skin absorption of ascorbyl glucoside (Franz permeation cell, HPLC)"}, "[2]": {"assay": "Test Example 3: skin absorption of arbutin (Franz permeation cell, HPLC)"}, "[3]": {"assay": "Test Example 4: skin absorption of vitamin A (retinoic acid) (Franz permeation cell, HPLC)"}}}
{"smiles": "CCOCCOCCOC(=O)C1CCC(C(=O)OCCOCCOCC)CC1", "note": "(stereo not drawn) [시클로헥산 디카르복실산 유도체, Bis-Ethoxydiglycol Cyclohexane 1,4-Dicarboxylate]", "values": [{"measurement": "increase in skin absorption of ascorbyl glucoside", "setting": "[1]", "result": "5~6 fold"}, {"measurement": "increase in skin absorption of arbutin", "setting": "[2]", "result": "5~6 fold"}, {"measurement": "increase in skin absorption of retinoic acid", "setting": "[3]", "result": "2~3 fold"}]}
